# Measurements reported in PubChem BioAssay (NCI).
#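 Step 1: Grow cells in 96-well plates. Step 2: Expose to compound for 48 hours at 5 concentrations. Step 3: Interpolate endpoints linearly; if unreached, use highest concentration. The concentration for full growth arrest is given as TGI.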
# How the values were obtained:
# Assay in all cases: growth of human tumour cells (NCI), 48 h
# TK-10 renal = test system: TK-10 renal
# OVCAR-5 ovarian = test system: OVCAR-5 ovarian
# NCI-H226 lung = test system: NCI-H226 lung
# KM12 colon = test system: KM12 colon
# M19-MEL melanoma = test system: M19-MEL melanoma
# HT29 colon = test system: HT29 colon
# SK-MEL-5 melanoma = test system: SK-MEL-5 melanoma
# HOP-18 NSCLC = test system: HOP-18 NSCLC
# NCI-H23 lung = test system: NCI-H23 lung
# K-562 leukemia = test system: K-562 leukemia
# MOLT-4 leukemia = test system: MOLT-4 leukemia
# NCI-H522 lung = test system: NCI-H522 lung
# DLD-1 colon = test system: DLD-1 colon
# A498 renal = test system: A498 renal
# UO-31 renal = test system: UO-31 renal
# SK-MEL-28 melanoma = test system: SK-MEL-28 melanoma
# IGROV1 ovarian = test system: IGROV1 ovarian
# NCI-H460 lung = test system: NCI-H460 lung
# SF-295 CNS = test system: SF-295 CNS
# RPMI-8226 leukemia = test system: RPMI-8226 leukemia
# SW-620 colon = test system: SW-620 colon
# SK-OV-3 ovarian = test system: SK-OV-3 ovarian
# LXFL 529 NSCLC = test system: LXFL 529 NSCLC
# HOP-62 NSCLC = test system: HOP-62 NSCLC
# OVCAR-8 ovarian = test system: OVCAR-8 ovarian
# SF-539 CNS = test system: SF-539 CNS
# U251 CNS = test system: U251 CNS
# HOP-92 NSCLC = test system: HOP-92 NSCLC
# SNB-19 CNS = test system: SNB-19 CNS
# UACC-257 melanoma = test system: UACC-257 melanoma
# SNB-75 CNS = test system: SNB-75 CNS
# ACHN renal = test system: ACHN renal
# A549 NSCLC = test system: A549 NSCLC
# CCRF-CEM leukemia = test system: CCRF-CEM leukemia
# UACC-62 melanoma = test system: UACC-62 melanoma
# HCT-116 colon = test system: HCT-116 colon
# SF-268 CNS = test system: SF-268 CNS
# HL-60(TB) leukemia = test system: HL-60(TB) leukemia
# HCC-2998 colon = test system: HCC-2998 colon
# COLO 205 colon = test system: COLO 205 colon
# OVCAR-3 ovarian = test system: OVCAR-3 ovarian
# SR leukemia = test system: SR leukemia
# 786-0 renal = test system: 786-0 renal
# OVCAR-4 ovarian = test system: OVCAR-4 ovarian
# HCT-15 colon = test system: HCT-15 colon
# HS 578T breast = test system: HS 578T breast
# MDA-MB-231 breast = test system: MDA-MB-231 breast
# LOX IMVI melanoma = test system: LOX IMVI melanoma
# RXF 393 renal = test system: RXF 393 renal
# T-47D breast = test system: T-47D breast
# PC-3 prostate = test system: PC-3 prostate
# MCF7 breast = test system: MCF7 breast
# CAKI-1 renal = test system: CAKI-1 renal
# MDA-N = test system: MDA-N
# DU-145 prostate = test system: DU-145 prostate
# BT-549 breast = test system: BT-549 breast
# MDA-MB-435 = test system: MDA-MB-435
# SK-MEL-2 melanoma = test system: SK-MEL-2 melanoma
# NCI/ADR-RES ovarian = test system: NCI/ADR-RES ovarian
# EKVX NSCLC = test system: EKVX NSCLC
# M14 melanoma = test system: M14 melanoma
smiles,measurement,setting,value
Cc1ccc(N2C(=O)/C(=c3\s/c(=C(/N)O)c(=N)n3-c3ccccc3)SC2=S)cc1,TGI,TK-10 renal,> 100 µM
same,TGI,OVCAR-5 ovarian,> 100 µM
same,TGI,NCI-H226 lung,> 100 µM
same,TGI,KM12 colon,> 100 µM
same,TGI,M19-MEL melanoma,> 100 µM
same,TGI,HT29 colon,> 100 µM
same,TGI,SK-MEL-5 melanoma,> 100 µM
same,TGI,HOP-18 NSCLC,> 100 µM
same,TGI,NCI-H23 lung,> 100 µM
same,TGI,K-562 leukemia,> 100 µM
same,TGI,MOLT-4 leukemia,> 100 µM
same,TGI,NCI-H522 lung,> 100 µM
same,TGI,DLD-1 colon,> 100 µM
same,TGI,A498 renal,> 100 µM
same,TGI,UO-31 renal,> 100 µM
same,TGI,SK-MEL-28 melanoma,> 100 µM
same,TGI,IGROV1 ovarian,> 100 µM
same,TGI,NCI-H460 lung,> 100 µM
same,TGI,SF-295 CNS,> 100 µM
same,TGI,RPMI-8226 leukemia,> 100 µM
same,TGI,SW-620 colon,> 100 µM
same,TGI,SK-OV-3 ovarian,> 100 µM
same,TGI,LXFL 529 NSCLC,> 100 µM
same,TGI,HOP-62 NSCLC,> 100 µM
same,TGI,OVCAR-8 ovarian,> 100 µM
same,TGI,SF-539 CNS,> 100 µM
same,TGI,U251 CNS,> 100 µM
same,TGI,HOP-92 NSCLC,47.1 µM
same,TGI,SNB-19 CNS,> 100 µM
same,TGI,UACC-257 melanoma,> 100 µM
same,TGI,SNB-75 CNS,28 µM
same,TGI,ACHN renal,> 100 µM
same,TGI,A549 NSCLC,> 100 µM
same,TGI,CCRF-CEM leukemia,> 100 µM
same,TGI,UACC-62 melanoma,> 100 µM
same,TGI,HCT-116 colon,> 100 µM
same,TGI,SF-268 CNS,> 100 µM
same,TGI,HL-60(TB) leukemia,> 100 µM
same,TGI,HCC-2998 colon,> 100 µM
same,TGI,COLO 205 colon,> 100 µM
same,TGI,OVCAR-3 ovarian,> 100 µM
C=CCC1(O)c2cccc(O)c2C(=O)c2c(O)cccc21,TGI,TK-10 renal,> 100 µM
same,TGI,SR leukemia,44.7 µM
same,TGI,786-0 renal,> 100 µM
same,TGI,OVCAR-4 ovarian,> 100 µM
same,TGI,OVCAR-5 ovarian,> 100 µM
same,TGI,NCI-H226 lung,> 100 µM
same,TGI,KM12 colon,> 100 µM
same,TGI,HT29 colon,67.9 µM
same,TGI,SK-MEL-5 melanoma,85.9 µM
same,TGI,NCI-H23 lung,56.9 µM
same,TGI,K-562 leukemia,> 100 µM
same,TGI,MOLT-4 leukemia,> 100 µM
same,TGI,NCI-H522 lung,75.8 µM
same,TGI,A498 renal,79.4 µM
same,TGI,UO-31 renal,> 100 µM
same,TGI,SK-MEL-28 melanoma,> 100 µM
same,TGI,IGROV1 ovarian,> 100 µM
same,TGI,HCT-15 colon,47.9 µM
same,TGI,NCI-H460 lung,> 100 µM
same,TGI,HS 578T breast,63.1 µM
same,TGI,SF-295 CNS,> 100 µM
same,TGI,RPMI-8226 leukemia,> 100 µM
same,TGI,MDA-MB-231 breast,> 100 µM
same,TGI,LOX IMVI melanoma,57.2 µM
same,TGI,RXF 393 renal,53.4 µM
same,TGI,SW-620 colon,> 100 µM
same,TGI,HOP-62 NSCLC,> 100 µM
same,TGI,T-47D breast,78.3 µM
same,TGI,PC-3 prostate,88 µM
same,TGI,OVCAR-8 ovarian,> 100 µM
same,TGI,MCF7 breast,> 100 µM
same,TGI,SF-539 CNS,> 100 µM
same,TGI,U251 CNS,69.1 µM
same,TGI,CAKI-1 renal,> 100 µM
same,TGI,HOP-92 NSCLC,88.9 µM
same,TGI,MDA-N,45 µM
same,TGI,UACC-257 melanoma,68.3 µM
same,TGI,DU-145 prostate,> 100 µM
same,TGI,SNB-75 CNS,75.2 µM
same,TGI,ACHN renal,> 100 µM
same,TGI,A549 NSCLC,88.4 µM
same,TGI,BT-549 breast,60.7 µM
same,TGI,HCT-116 colon,57.7 µM
same,TGI,MDA-MB-435,> 100 µM
same,TGI,SF-268 CNS,> 100 µM
same,TGI,HL-60(TB) leukemia,47.5 µM
same,TGI,HCC-2998 colon,43.7 µM
same,TGI,OVCAR-3 ovarian,> 100 µM
same,TGI,SK-MEL-2 melanoma,51.2 µM
same,TGI,NCI/ADR-RES ovarian,43 µM
same,TGI,EKVX NSCLC,92.2 µM
same,TGI,M14 melanoma,59.3 µM
